From patent publication US20240100058A1, “METHOD FOR SELECTING, ASSESSING, OR PRODUCING SODIUM LAURYL SULFATE AS RAW MATERIAL FOR PHARMACEUTICAL FORMULATION, OR FORMULATION OR THE LIKE CONTAINING SAME” (Chugai Seiyaku Kabushiki Kaisha, priority 2019, published 2024)

Key:
Assay type in all cases: physicochemical
[1] = X-ray powder diffraction of sodium lauryl sulfate lots after storage under accelerated condition; conditions: for storage period in which XRPD peaks of sodium lauryl sulfate-dodecanol complex were observed: 70° C., relative humidity about 10% (saturated LiCl), open system, stored up to day 11; for storage period at which new XRPD peaks (2θ around 4.9° and 7.4°) were first detected: airtight system, up to 4 days
Method: Samples (appropriate amount) of different lots, Lot 1 (production date: 2015.12.22) and Lot 2 (production date: 2017.3.10)) of sodium lauryl sulfate, which were obtained from a single manufacturer and produced on different days, were placed in glass vials and stored in an airtight system under condition 1A (temperature 60° C.) and condition 1B (temperature 70° C.). Samples before storage, stored for 3 days and 4 day were subjected to X-ray powder diffraction (XRPD). Measurement was performed in the conditions shown below.
X-ray powder diffraction method: • Measuring device: X′Pert-Pro MPD (manufactured by PANalytical) • Anti-cathode: Cu • Tube voltage: 45 kV • Tube current: 40 mA • Step width: 0.02 • Scan axis: 20 • Sampling time per step: 43 seconds • Scan range: 3 to 40°
(§1) A sample of sodium lauryl sulfate (about 250 mg) was placed in a glass vial and stored in an open system at a temperature of 70° C. and a relative humidity of about 10% (a saturated aqueous solution of LiCl). Samples of before storage, stored for a single day, 2 days, 3 days, 4 days, 7 days and 11 days were subjected to X-ray powder diffraction performed in the conditions of Example 1.

[2] = Sulfate ion quantification by ion chromatography in sodium lauryl sulfate after accelerated storage; conditions: for sulfate ion concentration in sample solution: after 4-day storage at 70° C., relative humidity about 10%, about 5 mg sample in 50 mL water
Method: as §1
Sulfate ions generated by decomposition of sodium lauryl sulfate in the samples of Lot 1 and Lot 2 after 4-day storage were quantified by ion chromatography shown below.
Sodium lauryl sulfate (about 5 mg) was weighed and water was added up to 50 mL. The solution was irradiated with ultrasonic wave for 15 minutes and filtered by a membrane filter (DISMIC-25HP PTFE 0.45 μm HYDROPHILIC, manufactured by ADVANTEC). The filtrate was passed through a solid-phase extraction cartridge (Dionex OnGuard II RP, manufactured by ThermoFisher Scientific) washed and the eluate was used as a sample solution. Separately, solutions having a sulfate ion concentration of 1 mg/L, 2 mg/L, 3 mg/L, 4 mg/L and 5 mg/L were prepared by use of the sulfate ion standard solution (1 g/L, manufactured by Wako Pure Chemical Industries Ltd.) for ion chromatography and used as the standard solutions. […]
The concentration of sulfate ion in a sample solution was calculated based on the calibration curve prepared by using the standard solutions.
Sodium lauryl sulfate is usually stored at room temperature; however, there are possible cases, e.g., transportation, where it is stored at a higher temperature than room temperature. […] After storage, sulfate ions generated by decomposition of sodium lauryl sulfate in the sample were quantified by ion chromatography shown in Example 4.

[3] = X-ray powder diffraction of sodium lauryl sulfate lots after storage under accelerated condition; conditions: for storage period at which new XRPD peaks were first detected: open system, sulfate
[4] = condition 2A: 70° C., relative humidity about 79% (saturated NaCl)
[5] = condition 2B: 70° C., relative humidity about 10% (saturated LiCl), up to 6 days

storage period in which XRPD peaks of sodium lauryl sulfate-dodecanol complex were observed [1] [days] | storage period at which new XRPD peaks (2θ around 4.9° and 7.4°) were first detected ([1]; condition 1A: 60° C.) [days] | storage period at which new XRPD peaks (2θ around 4.9° and 7.4°) were first detected ([1]; condition 1B: 70° C.) [days] | sulfate ion concentration in sample solution [2] [mg/L] | storage period at which new XRPD peaks were first detected [3, 4] [days] | physical state of sample after storage ([3]; condition 2A: 70° C., relative humidity about 79%, 2-days and 3-days storage) | storage period at which new XRPD peaks were first detected [3, 5] [days] | sulfate ion concentration detected by ion chromatography ([2]; prior storage under Conditions 1-17 of Table 1 (30-40° C. 45 days plus up to 48 hours at up to 60° C.), then 70° C., about 10% RH, 4 days) [mg/L] | Compound
≥ 3 | 4 | 3 | 24.1 | 1 | changed to a liquid state | 3 |  | CCCCCCCCCCCCOS(=O)(=O)[O-].[Na+] [Lot 1, sodium lauryl sulfate]
> 11 | > 4 | > 4 | ≤ 1 | 3 |  | > 6 |  | CCCCCCCCCCCCOS(=O)(=O)[O-].[Na+] [Lot 2, sodium lauryl sulfate]
 |  |  |  |  |  |  | ≤ 1 | CCCCCCCCCCCCOS(=O)(=O)[O-].[Na+] [Lot 5, sodium lauryl sulfate]
